Key:
Human Calpain 2/NS1 = target: T1, Human Calpain 2/NS1 (Homo sapiens, UniProt P17655); test: Biochemical inhibition of calpain 2, continuous fluorescence (FRET substrate) assay; settings: mean, read-out: Human Calpain 2/NS1 IC50 (nM)_MEAN
T1 sequence (P17655 1-700): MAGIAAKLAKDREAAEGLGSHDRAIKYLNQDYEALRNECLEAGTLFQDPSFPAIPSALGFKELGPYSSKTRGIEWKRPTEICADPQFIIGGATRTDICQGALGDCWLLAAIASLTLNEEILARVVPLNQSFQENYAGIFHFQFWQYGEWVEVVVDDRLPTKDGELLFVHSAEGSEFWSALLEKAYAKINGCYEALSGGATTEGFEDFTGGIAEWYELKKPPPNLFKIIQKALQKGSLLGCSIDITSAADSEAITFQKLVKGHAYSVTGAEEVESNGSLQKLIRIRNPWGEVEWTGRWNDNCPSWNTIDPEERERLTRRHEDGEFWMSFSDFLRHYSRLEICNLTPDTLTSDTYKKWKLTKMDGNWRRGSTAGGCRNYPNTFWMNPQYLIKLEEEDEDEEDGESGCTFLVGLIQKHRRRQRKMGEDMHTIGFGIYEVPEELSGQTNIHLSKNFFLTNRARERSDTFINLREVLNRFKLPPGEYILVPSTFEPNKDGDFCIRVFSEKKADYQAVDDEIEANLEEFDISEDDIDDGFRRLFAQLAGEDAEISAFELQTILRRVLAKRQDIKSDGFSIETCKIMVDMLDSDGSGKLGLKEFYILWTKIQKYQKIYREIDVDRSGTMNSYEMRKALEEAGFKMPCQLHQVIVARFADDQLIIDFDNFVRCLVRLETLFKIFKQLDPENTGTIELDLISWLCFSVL
T1 sequence (P04632 1-268 partner): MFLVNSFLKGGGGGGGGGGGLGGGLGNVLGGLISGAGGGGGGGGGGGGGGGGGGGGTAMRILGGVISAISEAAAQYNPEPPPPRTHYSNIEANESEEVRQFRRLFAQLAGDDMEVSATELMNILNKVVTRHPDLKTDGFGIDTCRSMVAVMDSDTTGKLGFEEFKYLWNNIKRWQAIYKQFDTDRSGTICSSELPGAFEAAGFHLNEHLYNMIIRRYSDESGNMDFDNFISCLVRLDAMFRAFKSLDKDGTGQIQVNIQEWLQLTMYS
Method: (§1) Calpain 1, 2, and 9 activity and inhibition thereof are assessed by means of a continuous fluorescence assay. The SensoLyte 520 Calpain substrate (Anaspec Inc) is optimized for detecting calpain activity. This substrate contains a novel internally quenched 5-FAM/QXL™ 520 FRET pair. Calpains 1, 2, and 9 cleave the FRET substrate into two separate fragments resulting in an increase of 5-FAM fluorescence that is proportional to calpain activity.
(§2) Assays are typically setup in black 384-well plates using automated liquid handling as follows. Calpain assay base buffer typically contains 50 mM Tris, pH˜7.5, 100 mM NaCl and 1 mM DTT. Inhibitors are serially diluted in DMSO and used to setup 2× mixtures with calpains in the aforementioned buffer. After incubation at ambient temperature (25C), the reaction is initiated by adding a 2× mix of the fluorescent peptide substrate and CaCl2) (required for in-situ calpain activation) in the same buffer. Reaction progress curve data are typically collected for 10 min using excitation/emission wavelengths of 490 nm/520 nm on SpectraMax i3× or the FLIPR-Tetra plate readers (Molecular Devices Inc). Reaction rates were calculated from progress curve slopes typically over 1-5 min. Dose response curves (rate vs. log inhibitor concentration) were typically fit to a 4-parameter logistic function to extract IC50 values.

Human Calpain 1/NS1 = target: T2, Human Calpain 1/NS1 (Homo sapiens, UniProt P07384); test: Biochemical inhibition of calpain 1, continuous fluorescence (FRET substrate) assay; settings: mean, read-out: Human Calpain 1/NS1 IC50 (nM)_MEAN
T2 sequence (P07384 1-714): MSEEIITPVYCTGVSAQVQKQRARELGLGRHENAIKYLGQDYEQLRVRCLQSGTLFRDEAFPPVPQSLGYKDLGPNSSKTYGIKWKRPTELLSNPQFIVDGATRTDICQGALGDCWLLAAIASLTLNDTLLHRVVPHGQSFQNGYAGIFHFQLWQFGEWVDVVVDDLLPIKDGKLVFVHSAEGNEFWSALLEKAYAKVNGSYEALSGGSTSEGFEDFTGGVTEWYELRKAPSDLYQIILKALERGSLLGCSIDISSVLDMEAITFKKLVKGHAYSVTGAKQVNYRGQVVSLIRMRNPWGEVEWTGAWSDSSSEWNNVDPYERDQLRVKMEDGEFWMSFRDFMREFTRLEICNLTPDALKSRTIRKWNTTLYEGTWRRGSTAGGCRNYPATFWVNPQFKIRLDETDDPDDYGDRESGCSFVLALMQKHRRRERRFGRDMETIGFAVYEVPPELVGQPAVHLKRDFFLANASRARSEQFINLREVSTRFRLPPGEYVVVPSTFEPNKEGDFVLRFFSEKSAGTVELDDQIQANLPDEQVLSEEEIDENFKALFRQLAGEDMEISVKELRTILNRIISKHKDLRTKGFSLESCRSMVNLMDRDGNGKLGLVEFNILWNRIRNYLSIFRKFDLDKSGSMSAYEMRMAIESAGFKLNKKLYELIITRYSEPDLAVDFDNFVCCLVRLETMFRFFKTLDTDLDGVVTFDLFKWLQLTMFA
T2 sequence (P04632 1-268 partner): T1 sequence (P04632 1-268 partner)
Method: as §1, §2

Human Calpain 9/NS1 = target: T3, Human Calpain 9/NS1 (Homo sapiens, UniProt O14815); test: Biochemical inhibition of calpain 9, continuous fluorescence (FRET substrate) assay; settings: mean, read-out: Human Calpain 9/NS1 IC50 (nM)_MEAN
T3 sequence (O14815 1-690): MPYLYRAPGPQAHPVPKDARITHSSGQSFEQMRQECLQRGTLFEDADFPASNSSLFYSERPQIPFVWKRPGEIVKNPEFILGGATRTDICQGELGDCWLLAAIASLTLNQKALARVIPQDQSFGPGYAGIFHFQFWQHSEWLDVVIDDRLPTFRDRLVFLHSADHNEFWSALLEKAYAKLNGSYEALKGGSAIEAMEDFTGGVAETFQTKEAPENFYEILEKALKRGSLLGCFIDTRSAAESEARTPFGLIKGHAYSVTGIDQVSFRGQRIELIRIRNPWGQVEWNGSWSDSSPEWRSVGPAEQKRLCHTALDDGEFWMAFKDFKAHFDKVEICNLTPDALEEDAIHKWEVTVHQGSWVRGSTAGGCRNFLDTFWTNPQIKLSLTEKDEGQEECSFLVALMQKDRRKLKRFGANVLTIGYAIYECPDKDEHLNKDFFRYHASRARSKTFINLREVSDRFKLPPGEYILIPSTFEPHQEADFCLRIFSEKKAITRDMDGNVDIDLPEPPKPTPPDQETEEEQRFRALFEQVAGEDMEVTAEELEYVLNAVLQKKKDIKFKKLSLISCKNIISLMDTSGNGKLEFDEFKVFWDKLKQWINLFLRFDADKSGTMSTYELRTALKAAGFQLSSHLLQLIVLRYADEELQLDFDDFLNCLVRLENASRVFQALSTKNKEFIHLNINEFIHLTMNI
T3 sequence (P04632 1-268 partner): T1 sequence (P04632 1-268 partner)
Method: as §1, §2

Structure (SMILES)	IC50 (Human Calpain 2/NS1) [nM]	IC50 (Human Calpain 1/NS1) [nM]	IC50 (Human Calpain 9/NS1) [nM]
C[C@H](NC(=O)C(=O)C1CCCCOCCOCc2ccccc2C(=O)N1)c1cccnc1 (stereo partly drawn) [Compound 126, 2-Oxo-2-(12-oxo-1,3,4,6,7,8,9,10,11,12-decahydrobenzo[f][1,4]dioxa[9]aza-cyclotetradecin-10-yl)-N—((S)-1-(pyridin-3-yl)ethyl)acetamide]	> 10000	> 10000	> 10000
O=C(NCCc1ccccn1)C(=O)C1CCCCOCCOCc2ccccc2C(=O)N1 (stereo not drawn) [Compound 82, 2-Oxo-2-(12-oxo-1,3,4,6,7,8,9,10,11,12-decahydrobenzo[f][1,4]dioxa[9]aza-cyclotetradecin-10-yl)-N-(2-(pyridin-2-yl)ethyl)acetamide]	> 10000	> 10000	3000 to 10000
COc1cccc(CCNC(=O)C(=O)C2CCCCOCCOCc3ccccc3C(=O)N2)c1 (stereo not drawn) [Compound 88, N-(3-methoxyphenethyl)-2-oxo-2-(12-oxo-1,3,4,6,7,8,9,10,11,12-decahydrobenzo[f][1,4]dioxa[9]azacyclotetradecin-10-yl)acetamide]	> 10000	> 10000	< 3000
CCCCc1ccc(CNC(=O)C(=O)C2CCCCOCCOCc3ccccc3C(=O)N2)cc1 (stereo not drawn) [Compound 112, N-(4-butylbenzyl)-2-oxo-2-(12-oxo-1,3,4,6,7,8,9,10,11,12-decahydrobenzo[f][1,4]dioxa[9]azacyclotetradecin-10-yl)acetamide]	> 10000	> 10000	< 3000
O=C(NCc1c(F)cccc1Cl)C(=O)C1CCCCOCCOCc2ccccc2C(=O)N1 (stereo not drawn) [Compound 107]	> 10000	> 10000	3000 to 10000

Now from value to molecule:

IC50 (Human Calpain 2/NS1) [nM]	IC50 (Human Calpain 1/NS1) [nM]	IC50 (Human Calpain 9/NS1) [nM]	Structure (SMILES)
< 3000	< 3000	< 3000	NC(=O)C(=O)[C@@H]1CCCCCOc2ccnc(n2)-c2ccccc2C(=O)N1 [Compound 129, (S)-2-oxo-2-(3-oxo-11-oxa-4-aza-1(2,4)-pyrimidina-2(1,2)-benzena-cycloundecaphane-5-yl)acetamide]
< 3000	< 3000	< 3000	O=C[C@@H]1CC=CCCOc2cccc(c2)-c2ccccc2C(=O)N1 [Compound 29, (S)-11-Oxo-3-oxa-10-aza-1(1,2),2(1,3)-dibenzenacycloundecaphan-6-ene-9-carbaldehyde]
< 3000	< 3000	< 3000	O=C[C@@H]1CCCCCOc2cccc(c2)-c2ccccc2C(=O)N1 [Compound 30, (S)-11-Oxo-3-oxa-10-aza-1(1,2),2(1,3)-dibenzenacycloundecaphane-9-carbaldehyde]
3000 to 10000	> 10000	< 3000	COc1cc(CNC(=O)C(=O)C2CCCCOCCOCc3ccccc3C(=O)N2)cc(OC)c1 (stereo not drawn) [Compound 119, N-(3,5-dimethoxybenzyl)-2-oxo-2-(12-oxo-1,3,4,6,7,8,9,10,11,12-decahydrobenzo[f][1,4]dioxa[9]azacyclotetradecin-10-yl)acetamide]
< 3000	< 3000	< 3000	O=C[C@@H]1Cc2cccc(c2)C=CCCOc2cccc(c2)-c2ncccc2C(=O)N1 [Compound 36, (S)-3-Oxo-12-oxa-4-aza-2(2,3)-pyridina-1,7(1,3)-dibenzenacyclododecaphan-8-ene-5-carbaldehyde]
3000 to 10000	> 10000	3000 to 10000	O=C[C@@H]1C/C=C/CCCOc2ccccc2C(=O)N1 [Compound 21, (S)-10-Oxo-3,4,7,8,9,10-hexahydro-2h-benzo[b][1]oxa[5]aza-cyclododecine-8-carbaldehyde]
< 3000	< 3000	< 3000	Cc1cc2n(n1)-c1cccc(c1)OCCCCC[C@@H](C(=O)C(N)=O)NC2=O [Compound 141, (S)-2-oxo-2-(11-oxo-1^1H-3-oxa-10-aza-1(3,4)-pyrazola-2(1,3)-benzena-cycloundecaphane-9-yl)acetamide]

From US11292801B2, “Calpain modulators and therapeutic uses thereof” (Blade Therapeutics, Inc., priority 2016, dated 2022)
